In assay [1] the target is Human immunodeficiency virus type 1 reverse transcriptase (Human immunodeficiency virus 1, UniProt Q72547). Description: Inhibition of HIV1 reverse transcriptase activity after 1 hr by ELISA.
The next assay has as its system HeLa. In words: Cytotoxicity against human HeLa cells up to 200 uM after 48 hrs by MTT assay. Background: Formazan colour is commonly taken as a measure of viable cells.

Experimental findings from ChEMBL document CHEMBL1641424, “Synthesis and biological activity of novel 5'-arylamino-nucleosides by microwave-assisted one-pot tandem Staudinger/aza-Wittig/reduction” (Bioorg Med Chem Lett, 2011) are described below.

The structures appear in SMILES notation. Calls of active or inactive are those of the source. The calls are words filed in the database; no cut-off is given here.

For the compound `O=c1[nH]c(=O)n([C@@H]2O[C@H](CNCc3c(Cl)cccc3Cl)[C@@H](O)[C@H]2O)cc1F`, in assay [1], the IC50 was 4.84 µM. The result in the assay with HeLa was inactive.

As to `O=c1[nH]c(=O)n([C@@H]2O[C@H](CNCc3c(F)cccc3Cl)[C@@H](O)[C@H]2O)cc1F`, it took 3.9 µM to reach half-maximal inhibition in assay [1] (IC50). Moreover, the result in the assay on HeLa was inactive.

For the compound `O=c1ccn([C@@H]2O[C@H](CNCc3c(Cl)cccc3Cl)[C@@H](O)[C@H]2O)c(=O)[nH]1`, the midpoint of inhibition in assay [1], the IC50, lay at 4.72 µM. The result with HeLa was inactive.

In turn, `O=c1ccn([C@@H]2O[C@H](CNCc3c(F)cccc3Cl)[C@@H](O)[C@H]2O)c(=O)[nH]1` had an IC50 in assay [1] of 4.99 µM. For the same compound, the outcome in the assay with HeLa was inactive.

Compound `O=c1ccn([C@@H]2O[C@H](CNCc3ccc(Cl)cc3)[C@@H](O)[C@H]2O)c(=O)[nH]1` returned an IC50 in assay [1] of 2.82 µM. The result in the assay on HeLa was inactive.

`O=c1[nH]c(=O)n([C@@H]2O[C@H](CNCc3ccccc3Cl)[C@@H](O)[C@H]2O)cc1F` showed an IC50 in assay [1] of 3.53 µM. In addition, the result in the assay on HeLa was inactive.

With `O=c1ccn([C@@H]2O[C@H](CNCc3ccccc3Cl)[C@@H](O)[C@H]2O)c(=O)[nH]1`, the midpoint of inhibition in assay [1], the IC50, lay at 6.13 µM. In addition, the result with HeLa was inactive.

Compound `O=c1[nH]c(=O)n([C@@H]2O[C@H](CNCc3ccc(Cl)cc3)[C@@H](O)[C@H]2O)cc1F` displayed an IC50 in assay [1] of 3.75 µM. For the same compound, the result in the assay with HeLa was inactive.

One may read the IC50 as the midpoint of a concentration-inhibition curve. Low readings indicate greater potency in that assay, high ones weaker potency in that assay.
